# Laboratory results taken from US12685312B2, “Sulfonamide apyrase inhibitors” (Texas Crop Science, Inc., priority 2022, dated 2026).
# Tested on: apyrase
# Assay: Screen for apyrase inhibitors (Method 1, in vitro phosphate-release absorbance assay)
# Assay type: biochemical
# Conditions: inhibitor conc at 1 mM stock, 1 hr room temperature, absorbance 630 nm; rounded average of two assay results
# Experimental: Apyrase inhibitors useful as enhancers of pesticidal activity are assessed using an in vitro assay. The method of Windsor, Bio Techniques 33:1024-1030 (November 2002) was used as follows Screen for Apyrase Inhibitors- 96 well plates were used for the assay: (Greiner bio-one: REF-655901-96 well, PS, F-bottom, Clear, Non-binding) Buffers: • Reaction Buffer: 60 mM Hepes; 3 mM MgCl2, 3 mM CaCl2 and 3 mM ATP (pH 6.5) • Development Buffer A: 2% aqueous ammonium molybdate • Development Buffer B: 11% ascorbic acid in 37.5% TCA in water • Stop buffer C: 2% trisodium citrate in 2% acetic acid solution in water • Add 100 μl of reaction buffer to each well. • Add 10 μl of DMSO (control) or inhibitor/compound or compounds such as […] or orthovanadate to each well. […] A blank cell indicates either <10% observed inhibition or a large difference between repetitions. In certain examples, the lack of observed inhibition is due to a lack of solubility of the compound under assay conditions, rather than a lack of apyrase inhibitory activity.
row,Structure (SMILES),% Inhibition of Apyrase [%]
1,"O=C(Nc1ccc(OC(F)F)cc1)c1ccccc1S(=O)(=O)Nc1cccc(C(F)(F)F)c1 [I-1, N-(4-(difluoromethoxy)phenyl)-2-(N-(3-(trifluoromethyl)phenyl)sulfamoyl)benzamide]",84
2,"O=C(Nc1cccc([N+](=O)[O-])c1)c1cccc(S(=O)(=O)Nc2cc(C(F)(F)F)ccc2Cl)c1 [I-3, 3-(N-(2-chloro-5-(trifluoromethyl)phenyl)sulfamoyl)-N-(3-nitrophenyl)benzamide]",73
3,"O=C(Nc1ccc(F)c([N+](=O)[O-])c1)c1ccc(S(=O)(=O)Nc2ccc(Cl)cc2)cc1 [I-4, 4-(N-(4-chlorophenyl)sulfamoyl)-N-(4-fluoro-3-nitrophenyl)benzamide]",73
4,"Cc1ccc(NS(=O)(=O)c2cc(C(=O)Nc3cccc([N+](=O)[O-])c3)ccc2C)cc1C [I-5, 3-(N-(3,4-dimethylphenyl)sulfamoyl)-4-methyl-N-(3-nitrophenyl)benzamide]",71
5,"Cc1ccc(C(=O)Nc2ccc([N+](=O)[O-])cc2)cc1S(=O)(=O)Nc1ccc(Br)cc1 [I-6, 3-(N-(4-bromophenyl)sulfamoyl)-4-methyl-N-(4-nitrophenyl)benzamide]",69
6,"Cc1cccc(NC(=O)c2cccc(NS(=O)(=O)c3ccc(Cl)cc3)c2)c1 [I-7, 3-((4-chlorophenyl)sulfonamido)-N-(m-tolyl)benzamide]",67
7,"CC1CCc2c(sc(NC(=O)c3cccc(S(=O)(=O)Nc4ccc(Br)cc4)c3)c2C#N)C1 (stereo not shown) [I-9, 3-(N-(4-bromophenyl)sulfamoyl)-N-(3-cyano-6-methyl-4,5,6,7-tetrahydrobenzo[b]thiophen-2-yl)benzamide]",61
8,"Cc1c(NC(=O)c2cccc(S(=O)(=O)Nc3ccc4c(c3)OCO4)c2)cccc1[N+](=O)[O-] [I-10, 3-(N-(benzo[d][1,3]dioxol-5-yl)sulfamoyl)-N-(2-methyl-3-nitrophenyl)benzamide]",60
9,"O=C(Nc1cccc([N+](=O)[O-])c1)c1cc(S(=O)(=O)Nc2cccc(F)c2)ccc1Cl [I-11, 2-chloro-5-(N-(3-fluorophenyl)sulfamoyl)-N-(3-nitrophenyl)benzamide]",60
10,"Cn1cc(O)nc1NC(=O)c1cccc(S(=O)(=O)Nc2ccc(Br)cc2)c1 [I-12, 3-(N-(4-bromophenyl)sulfamoyl)-N-(4-hydroxy-1-methyl-1H-imidazol-2-yl)benzamide]",59
11,"O=C(c1cccc(S(=O)(=O)Nc2ccc(Br)cc2)c1)N1CCc2ccccc21 [I-13, N-(4-bromophenyl)-3-(indoline-1-carbonyl)benzenesulfonamide]",59
12,"Cc1ccc(S(=O)(=O)Nc2cccc(C(=O)Nc3cccc(C)c3)c2)cc1 [I-14, 3-((4-methylphenyl)sulfonamido)-N-(m-tolyl)benzamide]",59
13,"COc1ccc(C(=O)Nc2cccc(Cl)c2)cc1S(=O)(=O)Nc1ccc(Br)cc1 [I-15, 3-(N-(4-bromophenyl)sulfamoyl)-N-(3-chlorophenyl)-4-methoxybenzamide]",55
14,"NC(=O)OCCNC(=O)c1cccc(S(=O)(=O)Nc2ccc(Br)cc2)c1 [I-17, 2-(3-(N-(4-bromophenyl)sulfamoyl)benzamido)ethyl carbamate]",52
15,"O=C(Nc1cccc([N+](=O)[O-])c1)c1ccc(Br)c(S(=O)(=O)Nc2ccc(F)cc2)c1 [I-19, 4-bromo-3-(N-(4-fluorophenyl)sulfamoyl)-N-(3-nitrophenyl)benzamide]",50
16,"O=C(Nc1ccc(Br)cc1)c1cccc(S(=O)(=O)Nc2ccc(Br)cc2)c1 [I-20, N-(4-bromophenyl)-3-(N-(4-bromophenyl)sulfamoyl)benzamide]",45
17,"O=C(Nc1cccc([N+](=O)[O-])c1)c1cccc(S(=O)(=O)Nc2ccc(Cl)cc2)c1 [I-21, 3-(N-(4-chlorophenyl)sulfamoyl)-N-(3-nitrophenyl)benzamide]",45
18,"O=C(Nc1cccc([N+](=O)[O-])c1)c1ccc(Br)c(S(=O)(=O)Nc2ccc(Br)cc2)c1 [I-22, 4-bromo-3-(N-(4-bromophenyl)sulfamoyl)-N-(3-nitrophenyl)benzamide]",38
19,"O=C(Nc1cccc([N+](=O)[O-])c1)c1ccc(Br)c(S(=O)(=O)Nc2cccc(F)c2)c1 [I-23, 4-bromo-3-(N-(3-fluorophenyl)sulfamoyl)-N-(3-nitrophenyl)benzamide]",30
20,"O=C(Nc1ccc(Br)cc1)c1cccc(S(=O)(=O)Nc2cccc([N+](=O)[O-])c2)c1 [I-24, N-(4-bromophenyl)-3-(N-(3-nitrophenyl)sulfamoyl)benzamide]",29
21,"Cc1ccc([N+](=O)[O-])cc1NC(=O)c1ccc(Cl)c(S(=O)(=O)Nc2cccc(C)c2C)c1 [I-25, 4-chloro-3-(N-(2,3-dimethylphenyl)sulfamoyl)-N-(2-methyl-5-nitrophenyl)benzamide]",28
22,"COc1ccc(C(=O)Nc2ccc(F)c(F)c2)cc1S(=O)(=O)Nc1ccc(Br)cc1 [I-26, 3-(N-(4-bromophenyl)sulfamoyl)-N-(3,4-difluorophenyl)-4-methoxybenzamide]",28
23,"COc1ccc(NS(=O)(=O)c2cccc(NC(=O)c3cccc(-n4cccc4)c3)c2)cc1 [I-27, N-(3-(N-(4-methoxyphenyl)sulfamoyl)phenyl)-3-(1H-pyrrol-1-yl)benzamide]",24
24,"COc1ccc([N+](=O)[O-])cc1NC(=O)c1ccc(C)c(S(=O)(=O)Nc2ccccc2)c1 [I-28, N-(2-methoxy-5-nitrophenyl)-4-methyl-3-(N-phenylsulfamoyl)benzamide]",23
25,"CC(=O)c1cccc(NS(=O)(=O)c2cc(C(=O)Nc3cccc([N+](=O)[O-])c3)ccc2C)c1 [I-29, 3-(N-(3-acetylphenyl)sulfamoyl)-4-methyl-N-(3-nitrophenyl)benzamide]",22
26,"O=C(Nc1cccc([N+](=O)[O-])c1)c1cccc(S(=O)(=O)Nc2cccc([N+](=O)[O-])c2)c1 [I-32, N-(3-nitrophenyl)-3-(N-(3-nitrophenyl)sulfamoyl)benzamide]",21

# Other lines, results leading:
row,% Inhibition of Apyrase [%],Structure (SMILES)
1,21,"O=C(Nc1cccnc1)c1cccc(S(=O)(=O)Nc2cccc(C(F)(F)F)c2)c1 [I-30, N-(pyridin-3-yl)-3-(N-(3-(trifluoromethyl)phenyl)sulfamoyl)benzamide]"
2,21,"O=C(Nc1cccc([N+](=O)[O-])c1)c1cccc(S(=O)(=O)Nc2ccc(F)cc2)c1 [I-31, 3-(N-(4-fluorophenyl)sulfamoyl)-N-(3-nitrophenyl)benzamide]"
3,19,"COc1ccc(C(=O)Nc2ccc(Cl)cc2)cc1S(=O)(=O)Nc1ccc(Br)cc1 [I-33, 3-(N-(4-bromophenyl)sulfamoyl)-N-(4-chlorophenyl)-4-methoxybenzamide]"
4,18,"O=C(Nc1cccc([N+](=O)[O-])c1)c1ccc(Br)c(S(=O)(=O)Nc2ccccc2)c1 [I-34, 4-bromo-N-(3-nitrophenyl)-3-(N-phenylsulfamoyl)benzamide]"
5,17,"Cc1ccc(C(=O)Nc2cccc(C(=O)O)c2)cc1S(=O)(=O)Nc1ccc(Br)cc1 [I-35, 3-(3-(N-(4-bromophenyl)sulfamoyl)-4-methylbenzamido)benzoic acid]"
6,16,"Cc1ccccc1NC(=O)c1cc(S(=O)(=O)Nc2ccc(Br)cc2)ccc1Cl [I-36, 5-(N-(4-bromophenyl)sulfamoyl)-2-chloro-N-(o-tolyl)benzamide]"
7,14,"O=C(Nc1cccc([N+](=O)[O-])c1)c1cccc(S(=O)(=O)N2CCc3ccccc32)c1 [I-38, 3-(indolin-1-ylsulfonyl)-N-(3-nitrophenyl)benzamide]"
8,14,"Cc1c(NC(=O)c2ccc(Cl)c(S(=O)(=O)Nc3ccccc3)c2)cccc1[N+](=O)[O-] [I-39, 4-chloro-N-(2-methyl-3-nitrophenyl)-3-(N-phenylsulfamoyl)benzamide]"
9,14,"Cc1ccccc1NS(=O)(=O)c1cccc(C(=O)Nc2cccc([N+](=O)[O-])c2)c1 [I-40, N-(3-nitrophenyl)-3-(N-(o-tolyl)sulfamoyl)benzamide]"
10,13,"COc1ccc([N+](=O)[O-])cc1NC(=O)c1cccc(S(=O)(=O)Nc2ccc(Cl)cc2)c1 [I-41, 3-(N-(4-chlorophenyl)sulfamoyl)-N-(2-methoxy-5-nitrophenyl)benzamide]"
11,13,"O=C(NCCC1CCCO1)c1cccc(S(=O)(=O)Nc2ccc(Br)cc2)c1 (stereo not shown) [I-42, 3-(N-(4-bromophenyl)sulfamoyl)-N-(2-(tetrahydrofuran-2-yl)ethyl)benzamide]"
12,13,"O=C(Nc1ccccc1)c1ccc(Cl)c(S(=O)(=O)Nc2ccc(Br)cc2)c1 [I-43, 3-(N-(4-bromophenyl)sulfamoyl)-4-chloro-N-phenylbenzamide]"
13,13,"O=C(Nc1ccccc1[N+](=O)[O-])c1cc(S(=O)(=O)Nc2ccc(Br)cc2)ccc1Cl [I-44, 5-(N-(4-bromophenyl)sulfamoyl)-2-chloro-N-(2-nitrophenyl)benzamide]"
14,13,"Cc1ccc(C(=O)Nc2cccc([N+](=O)[O-])c2)cc1S(=O)(=O)Nc1ccc(C(=O)O)cc1 [I-45, 4-((2-methyl-5-((3-nitrophenyl)carbamoyl)phenyl)sulfonamido) benzoic acid]"
